The record followed here is patent publication US7273846B2, “Selective melanin-concentrating hormone type-1 receptor agonists” (priority 2002, dated 2007).

Residues, ends and D or L forms follow the SMILES beside them.

Experiment [1] addresses T1, MCH-1R (Homo sapiens, UniProt Q99705).
Procedure: (§3) For transient expression, COS-7 cells were cultured in Dulbecco's modified Eagle medium (Gibco BRL, Rockville, Md.) with 10% heat inactivated fetal calf serum.
(§4) A suspension of 7×10^6 COS-7 cells were transfected with 20 μg of pCI-neo/MCH-2R plasmid by electroporation and cells were harvested after 60-72 hours. Membranes were prepared from transient and stable transfectants by hypotonic lysis, frozen in liquid nitrogen, and stored at −80° C.
(§5) Assays were optimized with respect to membrane preparations: for CHO/MCH-1R membranes, 1 μg of membranes per well yielded a>6× specific binding window and for COS or CHO MCH-2R membranes, 8 μg of membrane protein yielded a window of about 3×.
(§6) Specific binding is defined as the difference between total binding and non-specific binding conducted in the presence of 500 nM unlabeled hMCH. […] After equilibrating at room temperature for 3 hours, the plates were read in a TopCount (Packard, Meriden, Conn.). IC50 calculations were performed using Prism 3.0 (GraphPad. Software, San Diego, Calif.). The IC50 values were measured in three different experiments.
Experiment [2] addresses T1, MCH-1R. Description: biochemical.
Procedure: as §3, §4, §5, §6
Experiment [3] deals with T1, MCH-1R. The experiment in a line: Aequorin bioluminescence functional assay, 293AEQ17/MCH-1R cells. The following applies: for EC50: aequorin, 293AEQ17/MCH-1R cells, read-out: MCH-1R EC50; for MCH-1R Activation %: human MCH = 100, activation at 10 μM concentration; for fold lower agonist activity at hMCH-1R: relative to Ac-hMCH(6-16)-NH2. Further details: expressed in transfected cells. In kind it is cell-based. On the procedure: (§1) The aequorin bioluminescence assay is a reliable test for identifying G-protein-coupled receptors that couple through the G protein subunit family consisting of Gq and G11. Gq and G11 coupling leads to the activation of phospholipase C, mobilization of intracellular calcium, and activation of protein kinase C.
Stable cell lines expressing either the MCH-1R or the MCH-2R and the aequorin reporter protein were used. The assay was performed using a Luminoskan RT luminometer (Labsystems Inc., Gaithersburg, Md.) controlled by custom software written for a Macintosh PowerPC 6100.
(§2) The cells were harvested, washed once in ECB medium, and resuspended to 500,000 cells/mL. 100 μL of cell suspension (corresponding to 5×10^4 cells) was then injected into the test plate containing the hMCH peptides, and the integrated light emission was recorded over 30 seconds, in 0.5-s units. 20 μL of lysis buffer (0.1% final Triton X-100 concentration) was then injected and the integrated light emission recorded over 10 seconds, in 0.5-s units. The “fractional response” values for each well were calculated by taking the ratio of the integrated response to the initial challenge to the total integrated luminescence including the Triton X-100 lysis response.

Experiment [4] concerns the target T2, MCH-2R (Homo sapiens, UniProt Q969V1). The experiment in a line: Aequorin bioluminescence functional assay, 293AEQ17/MCH-2R cells. In kind it is cell-based. Particulars: for MCH-2R Activation %: human MCH = 100; for EC50: aequorin, 293AEQ17/MCH-2R cells. Set-up: expressed in transfected cells; MCH-2R Activation %: concentration or dose not given beside the values.
Excerpt: as §1
Stable cell lines expressing either the MCH-1R or the MCH-2R and the aequorin reporter protein were used.
as §2

Experiment [5] concerns the target T2, MCH-2R. The experiment in a line: Radioligand binding assay (SPA), MCH-2R. Particulars: for IC50: MCH-2R IC50, [125I]-[Phe13,Tyr19]-hMCH SPA, COS or CHO MCH-2R membranes.
Procedure: as §3, §4, §5, §6

T2 sequence (Q969V1 whole entry): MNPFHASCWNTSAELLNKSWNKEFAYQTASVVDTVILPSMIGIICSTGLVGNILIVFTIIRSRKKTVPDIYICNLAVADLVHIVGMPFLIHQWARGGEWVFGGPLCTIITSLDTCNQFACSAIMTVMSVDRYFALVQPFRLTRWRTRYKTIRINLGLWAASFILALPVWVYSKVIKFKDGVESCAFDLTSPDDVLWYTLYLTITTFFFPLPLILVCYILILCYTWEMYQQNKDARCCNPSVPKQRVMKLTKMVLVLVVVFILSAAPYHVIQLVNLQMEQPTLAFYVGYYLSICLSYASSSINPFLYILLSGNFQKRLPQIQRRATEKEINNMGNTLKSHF
T1 sequence (Q99705 whole entry): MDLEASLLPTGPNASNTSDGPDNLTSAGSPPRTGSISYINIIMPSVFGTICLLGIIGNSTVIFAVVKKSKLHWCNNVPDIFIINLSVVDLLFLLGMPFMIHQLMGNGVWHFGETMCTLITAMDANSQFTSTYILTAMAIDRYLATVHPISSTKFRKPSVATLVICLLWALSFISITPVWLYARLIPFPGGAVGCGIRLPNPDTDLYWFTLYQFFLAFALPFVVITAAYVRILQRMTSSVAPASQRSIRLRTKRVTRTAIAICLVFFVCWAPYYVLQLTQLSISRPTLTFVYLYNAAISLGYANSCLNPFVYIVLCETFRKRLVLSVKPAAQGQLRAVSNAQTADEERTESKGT

With `CSCC[C@@H]1NC(=O)[C@@H](NC(=O)[C@H](CCCNC(=N)N)NC(C)=O)CSSC[C@@H](C(N)=O)NC(=O)[C@@H]2CCCN2C(=O)[C@H](CCCNC(=N)N)NC(=O)[C@H](Cc2ccc(O)cc2)NC(=O)[C@H](C(C)C)NC(=O)[C@H](CCCNC(=N)N)NC(=O)[C@H](CC(N)=O)NC(=O)[C@H](CC(C)C)NC1=O` [SEQ. ID. NO. 25] (HELM PEPTIDE1{[ac].R.C.M.L.N.R.V.Y.R.P.C.[am]}$PEPTIDE1,PEPTIDE1,3:R3-12:R3$$$V2.0), the “Selectivity 2/1 (MCH-2R/MCH-1R IC50 binding ratio)” value in experiment [1] worked out at 1800. Further, the IC50 (commonly the concentration needed to halve the response being measured) in experiment [2] was 0.00028 µM. Also, in experiment [3], the “Selectivity 2/1 (MCH-2R/MCH-1R EC50 activity ratio)” value is given as 4.7, the EC50 (commonly the concentration giving half of the maximal effect) was found to be 0.051 µM and the “MCH-1R Activation %” value turned out to be 126%. Further, the “MCH-2R Activation %” value in experiment [4] is reported as 86%.

On to `CSCC[C@@H]1NC(=O)CCSSC[C@@H](C(N)=O)NC(=O)[C@@H]2CCCN2C(=O)[C@H](CCCNC(=N)N)NC(=O)[C@H](Cc2ccc(O)cc2)NC(=O)[C@H](C(C)C)NC(=O)[C@H](CCCNC(=N)N)NC(=O)CNC(=O)[C@H](CC(C)C)NC1=O` [SEQ. ID. NO. 15], for which the “Selectivity 2/1 (MCH-2R/MCH-1R IC50 binding ratio)” value in experiment [1] was determined as 500. The “fold lower binding affinity at hMCH-1R” value in experiment [1] (relative to Ac-hMCH(6-16)-NH2) is given as “about 5 fold”. Further, in experiment [3], the “Selectivity 2/1 (MCH-2R/MCH-1R EC50 activity ratio)” value is recorded as 5, the “MCH-1R Activation %” value is listed as 92% and the “fold lower agonist activity at hMCH-1R” value was approximately 30 fold. Also, in experiment [4], the EC50 is more than 3 µM and the “MCH-2R Activation %” value was determined as 47%. Also, in experiment [5], the “binding to hMCH-2R in words” value was “very weak ligand” and the IC50 is 3.5 µM.

Regarding `CSCC[C@@H]1NC(=O)[C@@H](NC(=O)[C@@H](CCCNC(=N)N)NC(C)=O)CSSC[C@@H](C(N)=O)NC(=O)[C@@H]2CCCN2C(=O)[C@H](CCCNC(=N)N)NC(=O)[C@H](Cc2ccc(O)cc2)NC(=O)[C@H](C(C)C)NC(=O)[C@H](CCCNC(=N)N)NC(=O)[C@H](CC(N)=O)NC(=O)[C@H](CC(C)C)NC1=O` [SEQ. ID. NO. 29] (HELM PEPTIDE1{[ac].[dR].C.M.L.N.R.V.Y.R.P.C.[am]}$PEPTIDE1,PEPTIDE1,3:R3-12:R3$$$V2.0), the “Selectivity 2/1 (MCH-2R/MCH-1R IC50 binding ratio)” value in experiment [1] was 6600. This compound came in with an IC50 in experiment [2] of 0.0005 µM. In experiment [3], the “agonism at hMCH-1R in words” value is reported as “activated hMCH-1R almost as efficiently as Ac-hMCH(6-16)NH2”, the “fold more selective as agonist for hMCH-1R than hMCH-2R” value is “about 150 fold”, the “Selectivity 2/1 (MCH-2R/MCH-1R EC50 activity ratio)” value came out at 150 and the “MCH-1R Activation %” value worked out at 120%. For the same compound, in experiment [4], the “MCH-2R Activation %” value is recorded as 20%.

For the compound `CSCC[C@@H]1NC(=O)[C@@H](NC(=O)[C@H](CCCNC(=N)N)NC(C)=O)CSSC[C@@H](C(N)=O)NC(=O)[C@@H]2CCCN2C(=O)[C@H](CCCNC(=N)N)NC(=O)[C@H](Cc2ccc(O)cc2)NC(=O)[C@H](C(C)C)NC(=O)[C@H](CCCNC(=N)N)NC(=O)[C@H](CO)NC(=O)[C@H](CC(C)C)NC1=O` [SEQ. ID. NO. 26] (HELM PEPTIDE1{[ac].R.C.M.L.S.R.V.Y.R.P.C.[am]}$PEPTIDE1,PEPTIDE1,3:R3-12:R3$$$V2.0), in experiment [1], the “Selectivity 2/1 (MCH-2R/MCH-1R IC50 binding ratio)” value came to 100. In experiment [3], the “Selectivity 2/1 (MCH-2R/MCH-1R EC50 activity ratio)” value came to 0.7 and the “MCH-1R Activation %” value was 120%. For the same compound, the “MCH-2R Activation %” value in experiment [4] amounted to 87%. The IC50 in experiment [5] worked out at 0.055 µM.

`CCCC[C@@H]1NC(=O)[C@@H](NC(=O)[C@@H](CCCNC(=N)N)NC(C)=O)CSSC[C@@H](C(N)=O)NC(=O)[C@@H]2CCCN2C(=O)[C@H](CCCNC(=N)N)NC(=O)[C@H](Cc2ccc(O)cc2)NC(=O)[C@H](C(C)C)NC(=O)[C@H](CCCNC(=N)N)NC(=O)[C@H](CC(N)=O)NC(=O)[C@H](CC(C)C)NC1=O` [SEQ. ID. NO. 31] (HELM PEPTIDE1{[ac].[dR].C.[Nle].L.N.R.V.Y.R.P.C.[am]}$PEPTIDE1,PEPTIDE1,3:R3-12:R3$$$V2.0): the “Selectivity 2/1 (MCH-2R/MCH-1R IC50 binding ratio)” value in experiment [1] was 5700. For the same compound, the IC50 in experiment [2] came out at 0.00028 µM. In addition, in experiment [3], the “agonism at hMCH-1R in words” value is “potent and selective hMCH-1R agonists”; the “Selectivity 2/1 (MCH-2R/MCH-1R EC50 activity ratio)” value was found to be 23; the “MCH-1R Activation %” value is given as 130%. Also, the “MCH-2R Activation %” value in experiment [4] amounted to 23%.

As to `CSCC[C@@H]1NC(=O)[C@@H](NC(=O)[C@H](CCCNC(=N)N)NC(C)=O)CSSC[C@@H](C(N)=O)NC(=O)[C@@H]2CCCN2C(=O)[C@H](CCCNC(=N)N)NC(=O)[C@H](Cc2ccc(O)cc2)NC(=O)[C@H](C(C)C)NC(=O)[C@H](CCCNC(=N)N)NC(=O)[C@@H]2CCCN2C(=O)[C@H](CC(C)C)NC1=O` [SEQ. ID. NO. 22], in experiment [1], the “Selectivity 2/1 (MCH-2R/MCH-1R IC50 binding ratio)” value is reported as 5. Also, in experiment [3], the “agonism at hMCH-1R in words” value is “virtually inactive at micromolar concentrations”, the EC50 was more than 10 µM and the “MCH-1R Activation %” value is listed as 10%. In experiment [4], the “agonism at hMCH-2R in words” value was “virtually inactive at micromolar concentrations” and the “MCH-2R Activation %” value was found to be 13%. The IC50 in experiment [5] came out at 3.5 µM.

As to `CSCC[C@@H]1NC(=O)[C@@H](NC(=O)[C@H](CCCNC(=N)N)NC(C)=O)CSSC[C@@H](C(N)=O)NC(=O)[C@@H]2CCCN2C(=O)[C@H](CCCNC(=N)N)NC(=O)[C@H](Cc2ccc(O)cc2)NC(=O)[C@H](C(C)C)NC(=O)[C@H](CCCNC(=N)N)NC(=O)[C@H](CC2CCCCC2)NC(=O)[C@H](CC(C)C)NC1=O` [SEQ. ID. NO. 19], the “Selectivity 2/1 (MCH-2R/MCH-1R IC50 binding ratio)” value in experiment [1] was found to be 11. Further, in experiment [3], the “agonism at hMCH-1R in words” value was “poorly activated both receptors”, the “Selectivity 2/1 (MCH-2R/MCH-1R EC50 activity ratio)” value amounted to 0.25 and the “MCH-1R Activation %” value stood at 76%. In experiment [4], the “agonism at hMCH-2R in words” value is on record as “poorly activated both receptors” and the “MCH-2R Activation %” value turned out to be 74%. The compound also displayed an IC50 in experiment [5] of 0.055 µM.

Turning to `CSCC[C@@H]1NC(=O)[C@@H](NC(=O)[C@H](CCCNC(=N)N)NC(C)=O)CSSC[C@@H](C(N)=O)NC(=O)[C@@H]2CCCN2C(=O)[C@H](CCCNC(=N)N)NC(=O)[C@H](Cc2ccc(O)cc2)NC(=O)[C@H](C(C)C)NC(=O)[C@H](CCCNC(=N)N)NC(=O)[C@H](CCCCN)NC(=O)[C@H](CC(C)C)NC1=O` [SEQ. ID. NO. 24], the “Selectivity 2/1 (MCH-2R/MCH-1R IC50 binding ratio)” value in experiment [1] is recorded as 86. In addition, in experiment [3], the “Selectivity 2/1 (MCH-2R/MCH-1R EC50 activity ratio)” value amounted to 1, the “MCH-1R Activation %” value was 43% and the “fold lower agonist activity at hMCH-1R” value came to 300 fold. For the same compound, the “MCH-2R Activation %” value in experiment [4] is 40%. In addition, the “fold lower agonist potency at hMCH-2R” value in experiment [4] (relative to Ac-hMCH(6-16)-NH2) was determined as 300 fold. The compound further showed an IC50 in experiment [5] of 1.46 µM.

As for `CSCC[C@@H]1NC(=O)[C@@H](NC(=O)[C@@H](CCCNC(=N)N)NC(C)=O)CSSC[C@@H](C(N)=O)NC(=O)[C@@H]2CCCN2C(=O)[C@H](CCCNC(=N)N)NC(=O)[C@H](Cc2ccc(O)cc2)NC(=O)[C@H](C(C)C)NC(=O)[C@H](CCCNC(=N)N)NC(=O)[C@H](CCC(N)=O)NC(=O)[C@H](CC(C)C)NC1=O` [SEQ. ID. NO. 30] (HELM PEPTIDE1{[ac].[dR].C.M.L.Q.R.V.Y.R.P.C.[am]}$PEPTIDE1,PEPTIDE1,3:R3-12:R3$$$V2.0), the “Selectivity 2/1 (MCH-2R/MCH-1R IC50 binding ratio)” value in experiment [1] amounted to 230. For the same compound, in experiment [3], the “agonism at hMCH-1R in words” value is “activated hMCH-1R almost as efficiently as Ac-hMCH(6-16)NH2”, the “fold more selective as agonist for hMCH-1R than hMCH-2R” value was “about 150 fold” and the “MCH-1R Activation %” value is on record as 74%. Moreover, in experiment [4], the EC50 was more than 10 µM and the “MCH-2R Activation %” value is 11%.
